In patent US8546447B2, “Treatment of acne using derivatives of 5-aminolevulinic acid” (Photocure ASA, priority 2004, dated 2013):

Assays:
P. acnes [1] = assay: PDT with CureLight LED 128 (Aktilite) lamp, P. acnes survival; assay type: cell-based, Propionibacterium acnes; conditions: for PDT effect, photodynamic inactivation (FIG. 10) / kill: 0.4 mM; for PDT effect, photodynamic inactivation (FIG. 10): Aktilite 128 lamp; for kill: 10 minutes illumination; for bacteria killed: 26 minutes of illumination (78 J/cm^2)
Protocol: (§1) Propionibacterium acnes (P. acnes) was obtained from American Type Culture Collection (ATCC No. 6919), and bacteria were grown anaerobically in the dark on blood-agar plates at 37° C.
(§2) PIPES buffer (ca. 1 ml) was added to each blood-agar petri-plate and with the help of a sterile glass-rod and a Pasteur pipette, the bacteria solution was transferred to a 20 ml test-tube. The suspension was then diluted with PIPES buffer until the optical density (OD) was 1.00±0.01 at 550 nm as measured by a spectrophotometer. At this OD the bacteria density is approximately 5×10^8 cells per ml.
(§3) A bacteria sample (100 μl of the suspension containing approx. 5×10^8 bacteria per ml) was collected and used as a t=0 control. Aliquots of the bacteria suspension were mixed with suitable volumes of the stock solutions of 5-ALA esters (containing 100 mM ALA ester) to obtain the appropriate concentrations and incubated for 4 hours at 37° C. in the dark. If illumination was not performed, survival was then assessed as described below.
(§4) After treatment with ALA esters (with or without illumination), the treated bacteria samples (as well as untreated controls) were collected and further diluted with PIPES buffer to 1×10^4 bacteria per ml. Aliquots of 20 ml of this suspension were then transferred to Bactoagar Petri-dishes (Futsaether et al., Can. J. Microbiol., 39(2): 180-186 1993), and incubated for 3-5 days at 37° C. in the dark. The colonies formed on the Bactoagar Petri-plates were counted using a colony counter. Cell survival after incubation with different concentrations of 5-ALA esters is given relative to the control samples (i.e. samples collected at t=0 hrs and the sample collected after 4 hrs incubation without 5-ALA ester) and given as percent survival: Survival=[Ctreated/Ccontrol]×100%
In order to compare the ALA hexyl ester and the ALA benzyl ester at the same concentration (1 mM), and also to test another light source, another experiment involving the use of a narrow-band red light (CureLight LED 128 lamp sold under the tradename Aktilite by Photocure ASA, Norway) was conducted. This lamp consists of 128 light emitting diodes (LED) and has a peak wavelength of 634±3 nm. The emission spectrum of the lamp has a full width at half maximum (FWHM) of 18 nm. The fluence rate at 50 mm distance is approx. 50 mW/cm^2 (max. fluence rate variation of the target area is ±10%).
After incubation with the ALA esters, 10 ml bacterial suspensions were irradiated in a 5.5 cm plastic petri-dish (see general section above). The petri-dishes were placed on a support lying in a large water-reservoir at ambient temperature in order to avoid temperature effects. […] After 3-5 days of incubation (at 37° C. in the dark) the survival was determined as described in the general section and given relative to the non-illuminated control sample.
Photodynamic inactivation of P. acnes after incubation with the 5-ALA esters listed in Example 9 (at 0.4 mM concentration) was studied following illumination with an Aktilite® 128 lamp.

[2] = test system: Propionibacterium acnes (P. acnes); assay: Dark toxicity of ALA esters in P. acnes (survival assay, colony forming ability); assay type: cell-based; conditions: for % CFU (mean normalised colony-forming units): 4 hours in the dark at 37° C.; for dark toxicity (FIG. 2): Example 1, concentrations up to 20 mM, 4 hours in the dark
Protocol: as §1
as §2, with “spectrophotometer.” for “spectrophotometer. At this OD the bacteria density is approximately 5×10^8 cells per ml.”
as §3, §4
In order to find suitable conditions for studying the photodynamic effect in P. acnes after incubation with ALA esters, a study was performed to assay the toxicity of the esters. This was done in the dark to avoid any PDT effect caused by stray light.
In order to find suitable conditions for studying the photodynamic effect in P. acnes after incubation with benzyl-, 4-chlorobenzyl-, 4-nitrobenzyl-, 2-methylbenzyl-, 4-methylpentyl- and 2-methoxyethyl 5-aminolevulinate, a study was performed to assay the toxicity of these compounds. This was done in the dark, as in Example 1, to avoid any PDT effect caused by stray light.

[3] = Itoh et al. 2001; Hongcharau et al. 2000; cited from earlier work
P. granulosum = assay: Dark toxicity in P. granulosum; assay type: cell-based, Propionibacterium granulosum
Protocol: Propionibacterium granulosum (P. granulosum) was obtained from American Type Culture Collection (ATCC No. 25564).
as §2, §3
After treatment with ALA esters (with or without illumination), the treated bacteria samples (as well as untreated controls) were collected and further diluted with PIPES buffer to 1×10^4 bacteria per ml. […] The colonies formed on the Bactoagar Petri-plates were counted using a colony counter. […]

P. acnes [4] = assay: Intracellular porphyrin formation in P. acnes (fluorescence emission); assay type: cell-based, Propionibacterium acnes; conditions: four hours incubation at 37° C. in the dark, various concentrations
Protocol: To study the intracellular porphyrin formation after incubation with the ALA esters, bacteria (5×10^8 cells per ml, 10 ml) were incubated with ALA esters at 37° C. in the dark for four hours. The formation of porphyrins was followed by studying the fluorescence emission spectra (the porphyrins display characteristic peaks). The procedure was as follows:
To assess the amount of endogenously retained porhyrins, 8 ml of the 5-ALA ester incubated bacteria were added to plastic test-tubes and incubated at 2-3° C. in the refrigerator to halt further 5-ALA ester uptake and/or porhyrin formation. Then the cells from were pelleted by centrifugation (5000 g, 5 rain, 2-3° C.), the supernatant discarded and the cells resuspended in fresh buffer (8 ml) and mixed well. Aliquots of 2 ml bacterial suspension were transferred to standard disposable plastic cuvettes, and fluorescence emission spectra of the cell suspensions were determined in a Perkin Elmer LS 50B fluorescence spectrometer using the following settings:
Excitation wavelength, λx: 405 nm
Emission wavelength, λe: 550-700 nm
Excitation and emission slits: 5 nm
Emission monochromator speed: 300 nm/min
The fairly broad range of wavelengths measured was motivated by the need to have a control of the autofluorescence from the bacteria, which is most easily discernable at the lower or higher wavelengths.

P. avidum = assay: Dark toxicity in P. avidum; assay type: cell-based, Propionibacterium avidum
Protocol: Propionibacterium avidum (P. avidum) was obtained from ATCC (ATCC No. 25577).
as §2, §3
After treatment with ALA esters (with or without illumination), the treated bacteria samples (as well as untreated controls) were collected and further diluted with PIPES buffer to 1×10^4 bacteria per ml. Aliquots of 20 ml of this suspension were then transferred to Bactoagar Petri-dishes (Futsaether et al., Can. J. Microbiol., 39(2): 180-186 1993), and incubated for 3-5 days at 37° C. in the dark. The colonies formed on the Bactoagar Petri-plates were counted using a colony counter. […]

P. acnes [5] = assay: PDT with CureLight BroadBand lamp, P. acnes survival; assay type: cell-based, Propionibacterium acnes; conditions: for effectiveness to kill the bacteria (FIG. 3): 4 mM methyl ester, 4 mM benzyl ester, 1 mM hexyl ester, red light 580-740 nm
Protocol: as §1, §2, §3
In some cases, illumination was performed on the bacteria-suspensions treated with ALA esters. The exact conditions are described in the Examples below. After illumination, survival was assayed as described below.
as §4
Bacteria suspensions (P. acnes) were treated with 4 mM ALA methyl ester, 4 mM benzyl ester and 1 mM hexyl ester (due to high dark toxicity results for this ester) as described in the general section above, diluted and illuminated using a CureLight BroadBand lamp (available from PhotoCure ASA, Norway, red light of 580-740 nm and a fluence rate of ≦840 W/m^2) under temperature controlled conditions (e.g. at ambient temperature). During illumination, 2×20 μl aliquots were collected every second minute for at total of 10 minutes and assayed for survival as described in the general section above. Relative survival after illumination was calculated relative to the control sample without red light exposure.

[6] = Example 9, concentrations up to 20 mM
[7] = hexylester compared with benzylester

| SMILES | PDT effect, photodynamic inactivation (FIG. 10) (P. acnes [1]) | % CFU (mean normalised colony-forming units) ([2]; 0.4 mM) [%] | % CFU (mean normalised colony-forming units) ([2]; 4 mM) [%] | % CFU (mean normalised colony-forming units) ([2]; 20 mM) [%] | kill (P. acnes [1]) | inducing porphyrin formation (FIG. 5) (P. acnes [4]) | dark toxicity (FIG. 2) [2] | effectiveness to kill the bacteria (FIG. 3) (P. acnes [5]) | also measured |
| --- | --- | --- | --- | --- | --- | --- | --- | --- | --- |
| COCCOC(=O)CCC(=O)CN [2-methoxyethyl, 2-methoxyethyl 5-aminolevulinate] | weaker PDT effect | 75.5 | 60.8 | 54.0 | – | – | – | – | dark toxicity (in words) [2, 6]: almost no toxicity |
| Cc1ccccc1COC(=O)CCC(=O)CN [2-methylbenzyl, 2-methylbenzyl ALA ester] | good abilities to kill the bacteria | 66.0 | 1.2 | 0.0 | approx. 50% | – | – | – | dark toxicity (in words) ([2]; Example 9, at 4 mM): considerable toxicity |
| NCC(=O)CCC(=O)OCc1ccc(Cl)cc1 [4-chlorobenzyl, 4-chlorobenzyl ALA ester] | most efficient | 81.6 | 3.7 | 0.0 | ~100% | – | – | – | dark toxicity (in words) ([2]; Example 9, at 4 mM): considerable toxicity |
| CC(C)CCCOC(=O)CCC(=O)CN [4-methylpentyl, 4-methylpentyl ALA ester] | weaker PDT effect | 86.5 | 37.3 | 0.5 | – | – | – | – | – |
| NCC(=O)CCC(=O)OCc1ccc([N+](=O)[O-])cc1 [4-nitrobenzyl, 4-nitrobenzyl ALA ester] | most efficient | 63.5 | 61.8 | 53.2 | ~100% | – | – | – | dark toxicity (in words) [2, 6]: almost no toxicity |
| NCC(=O)CCC(=O)O [5-ALA, 5-amino-4-oxo-pentanoic acid] | – | – | – | – | – | – | – | – | adverse effects of ALA-PDT [3]: significant adverse effects; efficacy of ALA-PDT for treatment of acne [3]: may be effective |
| CCCCCCOC(=O)CCC(=O)CN [ALA hexyl ester, Hexyl 5-aminolevulinate] | – | – | – | – | – | least effective | very toxic | quite effective | killed (P. granulosum; 4 mM, dark): 100%; dark toxicity (FIG. 6) (P. granulosum; [7]): considerably more toxic; bacteria killed (P. acnes [1]; 1 mM): 40%; killed (P. avidum; 4 mM, dark): 100%; dark toxicity (FIG. 6) (P. avidum; [7]): considerably more toxic |
| COC(=O)CCC(=O)CN [ALA methyl ester, methyl ALA ester] | – | – | – | – | – | slightly higher porphyrin levels | essentially non-toxic | least effective | – |
| NCC(=O)CCC(=O)OCc1ccccc1 [Benzyl, benzyl 5-aminolevulinate] | good abilities to kill the bacteria | 78.3 | 62.9 | 15.0 | approx. 50% | by far the most effective inducer | intermediate toxicity | most effective | bacteria killed (P. acnes [1]; 1 mM): killed all bacteria; photodynamic effect (FIG. 4) (P. acnes [1]; 1 mM, LED lamp 634 nm): much better photodynamic effect; light dose sufficient to obtain 100% kill (P. acnes [5]; 4 mM, CureLight BroadBand lamp): approx. 10 J/cm^2 |
